These results are taken from patent publication US12180220B2, “Heteroaryl modulators of RAS GTPase” (Tosk, Inc., priority 2020, dated 2024).

This test concerns SW620 Cell Lines. In words: Cell proliferation / cytotoxicity assay (CellTiter-Glo 2.0). The format is cell-based. Conditions: Homo sapiens, SW-620; 72 hours incubation, luminescence (CellTiter-Glo 2.0), 2-fold dilutions starting at 50 μM. The procedure:
Compounds are assayed for inhibition of cell proliferation and killing cancer cells. Cytotoxicity assays are conducted according to the following general procedure. […] cells (ATCC CCL-227) are maintained in DMEM Low Glucose (Corning 10-014-CV) media supplemented with 10% fetal bovine serum and 1% PenStrep and grown at 37° C. in 5% CO2. Cells are plated into 96 well flat bottom plates (2 million/plate, ˜20,000/well, 200 μL media/well). The cells are allowed to settle and adhere to the plate bottom overnight. Compounds are diluted in media from a 10 mM stock solution starting at 50 μM, using 2-fold dilutions, in a column in a 96-well plate. Media is removed from the plate containing cells and replaced with media containing diluted compounds. Plates are incubated 72 hours at 37° C. in 5% CO2. Plates are allowed to come to room temperature and 100 μL CellTiter-Glo 2.0 reagent (Promega, G924C) is added at room temperature. Plates are shaken for 2 minutes, then allowed to stand for 15 minutes. Luminescence is read with FLx800 (BioTek Instruments). Data is plotted with GraphPad Prizm 8.0.
On the technique in general: ATP-based viability assays read luminescence as a measure of living cells.
For orientation: IC50 means the concentration that inhibits the measured activity by half. The compound `Cc1nc(N[C@H]2CC[C@@H](NC(=O)OC(C)(C)C)CC2)nc2ccc(-c3cc[n+]([O-])c4c3OCCO4)cc12` [Compound 12A] registered an IC50 of 5 to 10 µM. The result for `Cc1nc(N[C@H]2CC[C@@H](C(=O)NC(C)C)CC2)nc2ccc(-c3cccc4c3OCCO4)cc12` [Compound 3B] reads 5 to 10 µM. Next, `Cc1nc(N[C@H]2CC[C@@H](C(=O)NC3CCCCC3)CC2)nc2ccc(-c3cccc4c3OCCO4)cc12` [Compound 2B]: 5 to 10 µM. Take `Cc1nc(N[C@@H]2CCN(C(=O)OC(C)(C)C)[C@@H](C)C2)nc2ccc(-c3ccnc4c3OCCO4)cc12` [Compound 1A]: the IC50 is < 5 µM. With `Cc1nc(N[C@H]2CC[C@@H](NC(=O)OC(C)(C)C)CC2)nc2ccc(-c3ccnc4c3OCCO4)cc12` [Compound 3A], the IC50 was < 5 µM. The result for `Cc1nc(N[C@@H]2CCN(C(=O)OC(C)(C)C)[C@H](C)C2)nc2ccc(-c3ccnc4c3OCCO4)cc12` [Compound 2A] reads < 5 µM; that for `Cc1nc(N[C@H]2CC[C@@H](NC(=O)OC(C)(C)C)CC2)nc2ccc(-c3ccnc4c3OCCO4)c(F)c12` [Compound 9A], < 5 µM; that for `Cc1nc(N[C@H]2CC[C@@H](NC(=O)OC(C)(C)C)CC2)nc2ccc(-c3cccc4c3OCC(=O)N4)cc12` [Compound 7C], 5 to 10 µM.

For the compound `Cc1nc(NC2CCN(C(=O)c3ccc(Cl)cc3)CC2)nc2ccc(-c3ccnc4c3OCCO4)cc12` [Compound 14A], the IC50 is < 5 µM. Next, `Cc1ccc2ccc(F)c(-c3ccc4nc(NC5CCN(C(=O)OC(C)C)CC5)nc(C)c4c3)c2n1` [Compound 2C]: 5 to 10 µM; `Cc1ccc2ccc(F)c(-c3ccc4nc(NC5CCN(C(=O)OC(C)(C)C)CC5)nc(C)c4c3)c2n1` [Compound 1C]: < 5 µM. Regarding `Cc1nc(NC2CCN(Cc3ccc(Cl)cc3)CC2)nc2ccc(-c3ccnc4c3OCCO4)cc12` [Compound 13A], the IC50 is < 5 µM.

`Cc1nc(N[C@@H]2C[C@H]3CC[C@@H](C2)N3C(=O)c2ccc(Cl)cc2)nc2ccc(-c3ccnc4c3OCCO4)cc12` [Compound 8C]: the IC50 was < 5 µM.

As to `Cc1nc(N[C@H]2CC[C@@H](NC(=O)OC(C)(C)C)CC2)nc2ccc(-c3cccc4c3CCCC4)cc12` [Compound 6B], the IC50 lay within 5 to 10 µM. Next, `Cc1nc(O[C@H]2CC[C@@H](NC(=O)OC(C)(C)C)CC2)nc2ccc(-c3ccnc4c3OCCO4)cc12` [Compound 7A]: < 5 µM; `Cc1nc(N[C@H]2CC[C@@H](NC(=O)c3ccc(Cl)cc3)CC2)nc2ccc(-c3ccnc4c3OCCO4)cc12` [Compound 8A]: < 5 µM; `Cc1ccc2ccc(F)c(-c3ccc4nc(N[C@H]5CC[C@@H](NC(=O)OC(C)(C)C)CC5)nc(C)c4c3)c2n1` [Compound 5C]: 5 to 10 µM. With `Cc1nc(N[C@H]2CC[C@H](NC(=O)OC(C)(C)C)CC2)nc2ccc(-c3ccnc4c3OCCO4)cc12` [Compound 4A], the IC50 was < 5 µM. Next, `Cc1nc(N[C@H]2C[C@@H](NC(=O)OC(C)(C)C)C2)nc2ccc(-c3ccnc4c3OCCO4)cc12` [Compound 5A]: < 5 µM; `Cc1nc(N[C@H]2CC[C@@H](NC3Cc4cccc(Cl)c4C3)CC2)nc2ccc(-c3ccnc4c3OCCO4)cc12` (stereo partly shown) [Compound 16A]: < 5 µM.

For `Cc1nc(N[C@H]2CC[C@H](NC(=O)OC(C)(C)C)CC2)nc2ccc(-c3cccc4c3CCCC4)cc12` [Compound 7B], the IC50 lay within 5 to 10 µM. With `Cc1nc(N[C@H]2CC[C@@H](NC(=O)OC(C)(C)C)CC2)nc2ccc(-c3c(Cl)cnc4c3OCCO4)cc12` [Compound 10A], the IC50 was < 5 µM. Next, `Cc1nc(NC2CCN(C(=O)OC(C)(C)C)CC2)nc2ccc(-c3cccc4c3CCCC4)cc12` [Compound 5B]: 5 to 10 µM; `Cc1nc(N[C@H]2CCN(Cc3ccc(Cl)cc3)[C@@H](C)C2)nc2ccc(-c3ccnc4c3OCCO4)cc12` [Compound 15A]: < 5 µM; `Cc1nc(N[C@H]2CCC[C@@H](NC(=O)OC(C)(C)C)C2)nc2ccc(-c3ccnc4c3OCCO4)cc12` [Compound 11A]: < 5 µM. The result for `Cc1nc(NC2CCC(C(=O)NCc3ccc(Cl)cc3)CC2)nc2ccc(-c3cccc4c3OCCO4)cc12` (stereo not shown) [Compound 1B] reads 5 to 10 µM; that for `Cc1nc(NC2CCN(C(=O)OC(C)(C)C)CC2)nc2ccc(-c3ccnc4ccccc34)cc12` [Compound 4C], 5 to 10 µM; that for `Cc1nc(N[C@H]2C[C@H](NC(=O)OC(C)(C)C)C2)nc2ccc(-c3ccnc4c3OCCO4)cc12` [Compound 6A], < 5 µM.
